Series [1] is described as follows: Naproxen quantification in canine sera (LC-MS/MS). The class given is in vivo, Beagle dogs. As to conditions: both sexes, Beagle, dog, serum, oral, mean+/−SEM. The protocol: A 1 mg/mL stock solution of d3-naproxen was prepared in dimethyl sulfoxide. […] A solution of 200 ng/mL of d3-naproxen was prepared by adding 4 μL of 50 μg/mL solution of d3-naproxen to 996 μL methanol/water (70:30) (stock solution B).
Isocratic chromatographic separation was performed on a Zorbax Eclipse XDB-C18 column (150×4.6 mm I.D., 5 μm particle size, Agilent, Santa Clara, Calif., USA, SN USKH095544) with a XDB-C18 guard column (12.5×4.6 mm I.D., μm particle size, Agilent, Santa Clara, Calif., USA, SN USLE034730) using a mobile phase of acetonitrile/0.02 M NH4OAc (pH=4.00) (70:30) at a flow rate of 0.500 mL/min for 6 min. […] There was a post time of 0.10 min. The column temperature was 40° C. and the autosampler temperature was maintained at 4° C. The sample injection volume was 10 μL. A 4000 Q trap from AB Sciex Instruments equipped with an electrospray ionization (ES1) was used in the negative ion mode with multiple reaction monitoring (MRM) for the quantitative analysis. Nitrogen was used as the collision gas and the curtain gas. […] Analytical data were acquired and quantification processing was performed by using Analyst software.
Six aged Beagle dogs (>6 years) of both sexes with quantified radiographic evidence of osteoarthritis were used for the study. […]

For series [2], the system named is aged Beagle dogs with radiographic evidence of osteoarthritis. Kind of series: Modified canine brief pain inventory questionnaire in aged dogs with osteoarthritis. Type of series: in vivo. The settings on record: test day 5; for cumulative pain score compared to baseline: about 1.5 hours after administration. The protocol:
This study used a blinded parallel group design with a total of eighteen (18) aged Beagle dogs greater than six years of age with radiographic evidence of osteoarthritis. The dogs were randomized to three groups of six subjects balanced on baseline pain levels determined using a modified canine brief pain inventory questionnaire in which a technician evaluated levels of pain and functional impairment in a standardized obstacle test over two baseline days. […] Dogs were tested on the modified canine brief pain inventory questionnaire daily over 7 days approximately 1.5 hours following administration of their respective treatments. Over the subsequent five test days, the same treatment doses were administered twice daily (i.e., doubling the daily dose), except that a loading dose was administered in the morning of the first day, which consisted of twice the daily dose level used initially (i.e., triple initial dose on the first day). The technicians assessing pain and function with the questionnaire were blinded to treatment conditions. Twice daily observations were conducted for the duration of the study.
Transdermal and oral naproxen were evaluated compared to a negative control as described in the Study Design. […] Questionnaire testing occurred approximately 1.5 hours following the morning dose administration of the test compounds. The two most affected joints of each subject were shaved prior to the first day of drug administration in all treatment groups.
Subjects were assessed on a pain questionnaire once daily on test days. […] Specifically, the ability of each dog to walk, trot, gallop, rear, jump over a low obstacle, climb and descend stairs, jump down from a perch and general activity was evaluated in addition to a subjective evaluation of pain during evaluation of each function. […]
The data consisted of whole number scored for 13 questions assessing measures of both pain (0-2) and functional impairment (0-4), as well as an overall pain and function question (0-4). A cumulative pain and functional impairment score was calculated from all […] for both the pain and functional impairment measures on a daily basis as applicable. […] Subsequently, difference from the baseline scores were calculated for the fifth test day at each dose and subjected to a similar RMANOVA analysis. […]
The dogs were randomized to three groups of six subjects based on mean baseline pain levels determined using a modified canine brief pain inventory questionnaire over two baseline days. […] Pain was evaluated using the pain questionnaire, which was administered approximately 1.5 hours following administration of their respective treatments. […] Data from the fifth treatment day at each dose compared to baseline was statistically evaluated.

A short description of series [3]: in vivo. The settings on record: dog.
Source text: (§1) 12 dogs with radiographic evidence of osteoarthritis (OA) were utilized to compare the concentration of ibuprofen in both blood and synovial fluid following transdermal delivery of ibuprofen formulated in base formulation and oral delivery in capsules. The 12 dogs were randomly divided into two groups of six subjects; one group received the oral positive treatment control and the other group received the transdermal treatment. The treatment cycle consisted of six days twice daily followed by a period of seven days devoid of treatment. Blood and synovial fluid samples (from both stifles and shoulders) were collected on the last (sixth) day of drug application and on the last (seventh) day of the washout period.
(§2) Test article: 1.5% (w/w) ibuprofen in base formulation (4); ˜1 g gel per shoulder joint twice daily (i.e. 15 mg ibuprofen per shoulder joint twice daily). Control article: base formulation; ˜1 g gel per shoulder joint twice daily. Positive Control: 30 mg ibuprofen in capsule PO twice daily.
(§3) Whole blood and synovial fluid samples were collected from the dogs 60 mins post treatment on the 7th day, and additional samples were collected after a 7 day washout. Baseline synovial fluid was collected from untreated canine subjects. Synovial fluid was collected under sedation (medetomidine (0.01 mg/kg) and butorphenol (0.1 mg/kg) IV). The fluid was collected by arthrocentesis into the joint following surgical preparation of the area. Synovial fluid was collected from stifle or shoulder joints.
Series [4] in a line: in vivo. The settings on record: for concentration at 7 days / Synovial Fluid drug concentration: dog, in vivo. The text has this: Baseline synovial fluid was collected from untreated canine subjects. […] Synovial fluid was collected from stifle or shoulder joints.
Error bars depicted standard error of the mean.

The conditions of series [5]: for Serum drug concentration: dog, in vivo.
Source text: as §1, §2, §3
Where [6] appears, read: Dose 2 (high dose, twice daily).

Like-named read-outs stand apart in the source and are kept apart here. Where only a bound is given, the exact number is not on record here.

In turn, `COc1ccc2cc([C@H](C)C(=O)O)ccc2c1` [oral naproxen, Naproxen] came in with a concentration at 60 min in series [1] (capsule PO once daily for seven days, 60 minutes post administration) of 102000 ng/mL. The molecule also came in with a concentration at 7 days in series [1] (seven day washout) of 16200 ng/mL. The “cumulative pain score difference from mean baseline compared to negative control” value was “reduced pain at only the low dose” in series [2] (Dose 1 (low dose, once daily)) and “reduced pain at only the low dose” in series [2] (setting [6]). Besides, the “cumulative pain score compared to baseline” value in series [2] (Dose 1 (low dose, once daily)) was “significant decrease from baseline”; in series [2] (setting [6]), “reduced measures of pain at only the low dose”.
Regarding `CC(C)Cc1ccc(C(C)C(=O)O)cc1` (centres unmarked) [Ibuprofen], the concentration at 7 days in “in vivo [3]” was 58.5 ng/mL; in the series “in vivo [3]” (po) it was 8.5 ng/mL; in the series “in vivo [4]” it was 58.5 ng/mL; in the series “in vivo [4]” (po), 8.5 ng/mL. Also, the “Synovial Fluid drug concentration” value was 1,711 (±828) ng/mL in “in vivo [4]” (60 min); 31 (±21)^□ ng/mL in the series “in vivo [4]” (7 days); 2,065 (±1,070) ng/mL in the series “in vivo [4]” (po, 60 min); 5 (±3)^□ ng/mL in “in vivo [4]” (po, 7 days). The “reduction of drug by a one week washout period” value in “in vivo [4]” (synovial fluid, oral or transdermal) is above 95%. For the same molecule, the Serum drug concentration in series [5] (60 min) is 2,904 (±1,212) ng/mL; in series [5] (7 days), 59 (±38)^□ ng/mL; in series [5] (po, 60 min) it was 15,420 (±3,450) ng/mL; in series [5] (po, 7 days) it was 9 (±4)^□ ng/mL. The “reduction of circulating drug by a one week washout period” value in series [5] (serum, oral or transdermal) was above 95%.
